Test results from EP0302824A2 (priority 1987, dated 1989).

Tested on: D. balteata
Assay: Soil activity of seed applied furathiocarb on maize cultivars Centaurus and Arjuna
Format: in vivo, Diabrotica balteata
Parameters: key to Scores of damage caused by D. balteata: 0-6 crown-root damage scale: 0 = no damage, 6 = <3 roots connect stem to soil
From the text: Plastic pots, 1 litre volume, are filled with soil to within 3 cm of the top. Three soil types are used: • 1. A natural soil from Stein, Canton Aargau, Switzerland. This is heat sterilized and sieved to give an agglomerate size of less than 5 mm. Its composition is clay 20.7%, silt 13.7%, sand 65.6%, organic matter 3.2%, pH 5.6. Moisture is adjusted to 20% of dry weight. • 2. An artificial mixture of fine quartz sand and milled neutralized peat (2% of total by dry weight). The moisture is adjusted to 10% of dry weight. • 3. An artificial mixture similar to (2) except that the neutralized peat comprised 6% by dry weight. Moisture is adjusted to 20% for the mixture.
One seed is sown 3 cm deep in the center of each of 10 pots per treatment. The pots are placed in a growth chamber with a relative humidity of 70% in a 12 hour daylength, light intensity 30,000 lux, using 26°C day and 22°C night temperatures. Soil moisture is maintained at the original level by daily irrigation with a commercially available nutrient solution.
After two or three weeks of plant growth, 40 larvae of the banded cucumber beetle (Diabrotica balteata) are scattered on the surface of each pot. This insect species is commonly used as a laboratory model for the corn rootworm (Diabrotica spp.) which is a common soil insect pest of maize (Zea mays) in the USA. For this test, second instar larvae are selected. They are reared on maize seedlings at 23°C for 13 days from egglaying. The surface of the soil in the pots is disturbed and 40 larvae are scattered on the surface. The disturbance encourages burrowing of the larvae.
The insects are allowed to feed on the plant roots for one week before the contents of each pot are separated into three components (roots, insects and soil) using a wet sieving technique. Living larvae are then counted and damage assessed on crown roots growing from the stem-base using the 0-6 scale shown below: • 0 = no damage • 1 = slight feeding damage, no roots eaten through • 2 = more than 3 places with feed damage, no roots eaten through • 3 = 1-2 roots eaten through • 4 = more than 2, but less than half the roots eaten • 5 = more than half the roots eaten, but at least 3 still connect stem and soil • 6 = less than 3 roots connect stem to soil
This example includes the results of test series using 2 maize cultivars Centaurus and Arjuna. The basic test procedure is described in detail under example 20 therefore only differences are mentioned here.
Seeds of the hybrid Centaurus are treated with 4 or 10 g/kg furathiocarb in either PVAc/PVAl or association polymer systems. The cultivar Arjuna is treated with 2.5 or 10 g/kg seed in the same polymer systems. The seeds are sown in two soil types, either a natural soil from Stein, Canton Aargau, Switzerland or in a 98% sand 2% peat mixture. Both these soil types are described previously.

[1] = cultivar Arjuna, 98% Sand, 3 w, Association Polymer, dosage 2.5 g
[2] = cultivar Arjuna, 98% Sand, 3 w, Association Polymer, dosage 10 g
[3] = cultivar Arjuna, 98% Sand, 3 w, PVAc/PVAl, dosage 2.5 g
[4] = cultivar Arjuna, 98% Sand, 3 w, PVAc/PVAl, dosage 10 g
[5] = cultivar Arjuna, 98% Sand, 4 w, Association Polymer, dosage 2.5 g
[6] = cultivar Arjuna, 98% Sand, 4 w, Association Polymer, dosage 10 g
[7] = cultivar Arjuna, 98% Sand, 4 w, PVAc/PVAl, dosage 2.5 g
[8] = cultivar Arjuna, 98% Sand, 4 w, PVAc/PVAl, dosage 10 g
[9] = cultivar Arjuna, Stein Earth, 3 w, Association Polymer, dosage 2.5 g
[10] = cultivar Arjuna, Stein Earth, 3 w, Association Polymer, dosage 10 g
[11] = cultivar Arjuna, Stein Earth, 3 w, PVAc/PVAl, dosage 2.5 g
[12] = cultivar Arjuna, Stein Earth, 3 w, PVAc/PVAl, dosage 10 g
[13] = cultivar Arjuna, Stein Earth, 4 w, Association Polymer, dosage 2.5 g
[14] = cultivar Arjuna, Stein Earth, 4 w, Association Polymer, dosage 10 g
[15] = cultivar Arjuna, Stein Earth, 4 w, PVAc/PVAl, dosage 2.5 g
[16] = cultivar Arjuna, Stein Earth, 4 w, PVAc/PVAl, dosage 10 g
[17] = hybrid Centaurus, 98% Sand, 3 w, Association Polymer, dosage 4 g
[18] = hybrid Centaurus, 98% Sand, 3 w, Association Polymer, dosage 10 g
[19] = hybrid Centaurus, 98% Sand, 3 w, PVAc/PVAl, dosage 4 g
[20] = hybrid Centaurus, 98% Sand, 3 w, PVAc/PVAl, dosage 10 g
[21] = hybrid Centaurus, 98% Sand, 4 w, Association Polymer, dosage 4 g
[22] = hybrid Centaurus, 98% Sand, 4 w, Association Polymer, dosage 10 g
[23] = hybrid Centaurus, 98% Sand, 4 w, PVAc/PVAl, dosage 4 g
[24] = hybrid Centaurus, 98% Sand, 4 w, PVAc/PVAl, dosage 10 g
[25] = hybrid Centaurus, Stein Earth, 3 w, Association Polymer, dosage 4 g
[26] = hybrid Centaurus, Stein Earth, 3 w, Association Polymer, dosage 10 g
[27] = hybrid Centaurus, Stein Earth, 3 w, PVAc/PVAl, dosage 4 g
[28] = hybrid Centaurus, Stein Earth, 3 w, PVAc/PVAl, dosage 10 g
[29] = hybrid Centaurus, Stein Earth, 4 w, Association Polymer, dosage 4 g
[30] = hybrid Centaurus, Stein Earth, 4 w, Association Polymer, dosage 10 g
[31] = hybrid Centaurus, Stein Earth, 4 w, PVAc/PVAl, dosage 4 g
[32] = hybrid Centaurus, Stein Earth, 4 w, PVAc/PVAl, dosage 10 g

## CCCCOC(=O)N(C)SN(C)C(=O)Oc1cccc2c1OC(C)(C)C2 [furathiocarb]
[1]
  Percent D. balteata survival: 5%
  Scores of damage caused by D. balteata: 1.4
[2]
  Percent D. balteata survival: 8%
  Scores of damage caused by D. balteata: 1.2
[3]
  Percent D. balteata survival: 20%
  Scores of damage caused by D. balteata: 3.0
[4]
  Percent D. balteata survival: 20%
  Scores of damage caused by D. balteata: 2.8
[5]
  Percent D. balteata survival: 17%
  Scores of damage caused by D. balteata: 2.8
[6]
  Percent D. balteata survival: 0%
  Scores of damage caused by D. balteata: 0.6
[7]
  Percent D. balteata survival: 39%
  Scores of damage caused by D. balteata: 3.4
[8]
  Percent D. balteata survival: 21%
  Scores of damage caused by D. balteata: 3.2
[9]
  Percent D. balteata survival: 1%
  Scores of damage caused by D. balteata: 3.6
[10]
  Percent D. balteata survival: 1%
  Scores of damage caused by D. balteata: 1.8
[11]
  Percent D. balteata survival: 5%
  Scores of damage caused by D. balteata: 3.2
[12]
  Percent D. balteata survival: 3%
  Scores of damage caused by D. balteata: 3.0
[13]
  Percent D. balteata survival: 17%
  Scores of damage caused by D. balteata: 3.8
[14]
  Percent D. balteata survival: 0%
  Scores of damage caused by D. balteata: 2.3
[15]
  Percent D. balteata survival: 11%
  Scores of damage caused by D. balteata: 3.0
[16]
  Percent D. balteata survival: 14%
  Scores of damage caused by D. balteata: 3.4
[17]
  Percent D. balteata survival: 2%
  Scores of damage caused by D. balteata: 1.4
[18]
  Percent D. balteata survival: 4%
  Scores of damage caused by D. balteata: 0
[19]
  Percent D. balteata survival: 17%
  Scores of damage caused by D. balteata: 3.0
[20]
  Percent D. balteata survival: 8%
  Scores of damage caused by D. balteata: 1.8
[21]
  Percent D. balteata survival: 8%
  Scores of damage caused by D. balteata: 1.6
[22]
  Percent D. balteata survival: 8%
  Scores of damage caused by D. balteata: 1.2
[23]
  Percent D. balteata survival: 36%
  Scores of damage caused by D. balteata: 3.4
[24]
  Percent D. balteata survival: 30%
  Scores of damage caused by D. balteata: 3.6
[25]
  Percent D. balteata survival: 0%
  Scores of damage caused by D. balteata: 0.8
[26]
  Percent D. balteata survival: 1%
  Scores of damage caused by D. balteata: 1.0
[27]
  Percent D. balteata survival: 1%
  Scores of damage caused by D. balteata: 2.1
[28]
  Percent D. balteata survival: 1%
  Scores of damage caused by D. balteata: 1.0
[29]
  Percent D. balteata survival: 4%
  Scores of damage caused by D. balteata: 2.1
[30]
  Percent D. balteata survival: 7%
  Scores of damage caused by D. balteata: 1.9
[31]
  Percent D. balteata survival: 4%
  Scores of damage caused by D. balteata: 1.8
[32]
  Percent D. balteata survival: 10%
  Scores of damage caused by D. balteata: 2.2
